# PMC12697872, “Rethinking the AI Paradigm for Solubility Prediction of Drug‑Like Compounds with Dual‐Perspective Modeling and Experimental Validation” (Advanced Science, 2025)
# Like-named read-outs stand apart in the source and are kept apart here.
# Key:
# [1] = CASR-2 dataset, aqueous solubility class 0-6; cited from earlier work
# [2] = cited from earlier work
# [3] = 1H NMR on the saturated aqueous solution; format: physicochemical
# Description: Each compound was tested in triplicate to ensure accuracy.
# [4] = cited from earlier work; for LogS(mol/L): SC2-2 dataset (Second Solubility Challenge, loose subset), aqueous solubility; for Class: SC2-2 dataset, aqueous solubility class 0-6
SMILES,LogS(mol/L) [4] [mol/L],Class [4],other results
[2H]c1c([2H])c([2H])c2c(c1[2H])C([2H])([2H])C([2H])([2H])C([2H])([2H])C2([2H])[2H],,,"Class [1]: 3 (Sparingly soluble (3)); LogS ([2]; CASR-1 curated training data, aqueous, 25 ± 2 °C): -0.8582 mol/L; LogS(mol/L) ([2]; sheet Uncurated data, compiled records): -0.8582 mol/L"
CCCC(=O)OC[C@@H](OC(=O)CCC)[C@@H](OC(=O)CCC)[C@H](Cn1c2nc(=O)[nH]c(=O)c-2nc2cc(C)c(C)cc21)OC(=O)CCC [riboflavin tetrabutyrate],,,Solute in saturated aqueous solution by 1H NMR [3]: no existence of solute in the solution
CCC(C)n1ncn(-c2ccc(N3CCN(c4ccc(OC[C@H]5CO[C@](Cn6cncn6)(c6ccc(Cl)cc6Cl)O5)cc4)CC3)cc2)c1=O (stereo partly drawn),-8.98,6 (Practically insoluble or insoluble (6)),
CCCc1nc2c(C)cc(-c3nc4ccccc4n3C)cc2n1Cc1ccc(-c2ccccc2C(=O)O)cc1,-6.73,6 (Practically insoluble or insoluble (6)),
CC#C[C@]1(O)CC[C@H]2[C@@H]3CCC4=CC(=O)CCC4=C3[C@@H](c3ccc(N(C)C)cc3)C[C@@]21C,-5.22,6 (Practically insoluble or insoluble (6)),
O=C(c1ccc(OCCN2CCCCC2)cc1)c1c(-c2ccc(O)cc2)sc2cc(O)ccc12,,6 (Practically insoluble or insoluble (6)),
COc1ccc2[nH]c([S+]([O-])Cc3ncc(C)c(OC)c3C)nc2c1 (stereo not drawn),-3.7,6 (Practically insoluble or insoluble (6)),
CC(C)N=c1cc2n(-c3ccc(Cl)cc3)c3ccccc3nc-2cc1Nc1ccc(Cl)cc1,-9.05,6 (Practically insoluble or insoluble (6)),
COC1C=COC2(C)Oc3c(C)c(O)c4c(c3C2=O)C2=NC3(CCN(CC(C)C)CC3)NC2=C(NC(=O)C(C)=CC=CC(C)C(O)C(C)C(O)C(C)C(OC(C)=O)C1C)C4=O (stereo not drawn),-4.09,6 (Practically insoluble or insoluble (6)),
CCN(CC)CCOC(=O)c1ccc(N)cc1 [CCN(CC)CCOC(=O)c1ccc(N)cc1],-2.3,4 (Slightly soluble (4)),
O=C(O)c1cc(-c2ccc(F)cc2F)ccc1O [O=C(O)c1cc(-c2ccc(F)cc2F)ccc1O],-4.99,6 (Practically insoluble or insoluble (6)),
CO[C@]12CC[C@@]3(C[C@@H]1[C@@](C)(O)C(C)(C)C)[C@H]1Cc4ccc(O)c5c4[C@@]3(CCN1CC1CC1)[C@H]2O5,-6.07,6 (Practically insoluble or insoluble (6)),
COc1cc(NS(=O)(=O)c2ccc(N)cc2)nc(OC)n1 [COc1cc(NS(=O)(=O)c2ccc(N)cc2)nc(OC)n1],-3.74,6 (Practically insoluble or insoluble (6)),
CCc1ccc(CCOc2ccc(CC3SC(=O)NC3=O)cc2)nc1 (stereo not drawn) [CCc1ccc(CCOc2ccc(CC3SC(=O)NC3=O)cc2)nc1],-6.2,6 (Practically insoluble or insoluble (6)),
